Test results as given in publication PMC5751305, “In Silico Screening and In Vitro Activity Measurement of Javamide Analogues as Potential p38 MAPK Inhibitors” (International Journal of Molecular Sciences, 2017).

Experiments:
Type in all cases: biochemical
p38 α [1] = target: T1, p38 α (Homo sapiens, UniProt Q16539); test: ADP-Glo kinase assay (Promega CMGC-1), % inhibition at […]
T1 construct: gene MAPK14

p38 α [2] = target: T1, p38 α; test: ADP-Glo kinase assay (Promega CMGC-1 kinase selectivity profiling system), dose response […]
p38 α [3] = target: T1, p38 α; test: ADP-Glo kinase assay (Promega CMGC-1 kinase selectivity profiling system)

T1 sequence (Q16539 2-360): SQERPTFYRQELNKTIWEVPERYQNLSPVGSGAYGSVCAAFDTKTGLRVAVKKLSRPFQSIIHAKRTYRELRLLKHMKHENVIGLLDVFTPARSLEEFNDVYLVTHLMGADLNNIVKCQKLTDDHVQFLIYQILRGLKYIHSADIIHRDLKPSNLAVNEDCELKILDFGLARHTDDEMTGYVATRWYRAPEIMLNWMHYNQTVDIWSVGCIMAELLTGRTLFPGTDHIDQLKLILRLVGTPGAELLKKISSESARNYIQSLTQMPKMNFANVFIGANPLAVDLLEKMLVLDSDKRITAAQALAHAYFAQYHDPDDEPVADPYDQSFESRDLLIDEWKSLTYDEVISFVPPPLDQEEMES

`O=C(/C=C/c1ccc(O)c(O)c1)N[C@@H](Cc1c[nH]c2ccccc12)C(=O)O` [Javamide-II, javamide-II] was tested, and the inhibition at 5 µM (p38 α [1]) was 31.5%.

In the case of `CCOC(=O)[C@H](Cc1c[nH]c2ccccc12)NC(=O)/C=C/c1ccc(O)c(O)c1` [Javamide-II-ethyl, javamide-II-O-ethyl ester], the IC50 (p38 α [2]) is reported as 9.9 µM.

Compound `COC(=O)[C@H](Cc1c[nH]c2ccccc12)NC(=O)/C=C/c1ccc(O)c(O)c1` [Javamide-II-methyl, Methyl (E)-(3-(3,4-dihydroxyphenyl)acryloyl) tryptophanate] has an IC50 (p38 α [3]) of 12 µM.
